Test results reported in patent publication US20140213567A1, “TAZOBACTAM ARGININE ANTIBIOTIC COMPOSITIONS” (Cubist Pharmaceuticals, Inc., priority 2012, published 2014).

Assay: Hygroscopicity of solid form
Assay type: physicochemical
Details: relative to amorphous tazobactam arginine and amorphous tazobactam sodium

For `C[C@]1(Cn2ccnn2)[C@H](C(=O)O)N2C(=O)CC2S1(=O)=O` (stereo partly shown) [Tazobactam arginine polymorph Ia, Tazobactam Arginine], the hygroscopicity was “low hygroscopicity”.
